Data as given in ChEMBL document CHEMBL1201861, “Genomics of Drug Sensitity in Cancer screening data, Wellcome Trust Sanger Institute”.

Columns and labels:
Experiment in all cases: cells
Format in all cases: functional, cell-based, Homo sapiens
HOP-62 = tested on: HOP-62;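 note: cell growth inhibition determined with a viability assay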
Description: SANGER: Inhibition of human HOP-62 cell growth in a cell viability assay.

RS4-11 = tested on: RS4-11;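 note: growth inhibition of RS4-11 cells, read out by a cell viability assay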
Description: SANGER: Inhibition of human RS4-11 cell growth in a cell viability assay.

IST-MEL1 = tested on: IST-MEL1;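 note: growth inhibition of the cell line, read out with a cell viability assay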
Description: SANGER: Inhibition of human IST-MEL1 cell growth in a cell viability assay.

DMS-79 = tested on: DMS-79;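 note: growth inhibition measured with a cell viability assay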
Description: SANGER: Inhibition of human DMS-79 cell growth in a cell viability assay.

LB373-MEL-D = tested on: LB373-MEL-D;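 note: growth inhibition of the cell line, read out in a cell viability assay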
Description: SANGER: Inhibition of human LB373-MEL-D cell growth in a cell viability assay.

NB10 = tested on: NB10;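 note: growth inhibition of NB10 cells, read out by a cell viability assay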
Description: SANGER: Inhibition of human NB10 cell growth in a cell viability assay.

MHH-NB-11 = tested on: MHH-NB-11;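 note: growth inhibition of human MHH-NB-11 cells, read out by a cell viability assay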
Description: SANGER: Inhibition of human MHH-NB-11 cell growth in a cell viability assay.

SK-PN-DW = tested on: SK-PN-DW;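 note: growth inhibition measured with a viability assay on these cells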
Description: SANGER: Inhibition of human SK-PN-DW cell growth in a cell viability assay.

HDLM-2 = tested on: HDLM-2;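 note: cell viability assay measuring suppression of HDLM-2 proliferation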
Description: SANGER: Inhibition of human HDLM-2 cell growth in a cell viability assay.

ATN-1 = tested on: ATN-1;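 note: growth inhibition of human ATN-1 cells, read out with a cell viability assay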
Description: SANGER: Inhibition of human ATN-1 cell growth in a cell viability assay.

TK-10 = tested on: TK-10;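 note: growth inhibition of TK-10 cells, read out in a cell viability assay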
Description: SANGER: Inhibition of human TK10 cell growth in a cell viability assay.

ES3 = tested on: ES3;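 note: growth inhibition of ES3 cells, read out with a cell viability assay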
Description: SANGER: Inhibition of human ES3 cell growth in a cell viability assay.

RKO = tested on: RKO;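 note: growth inhibition of human RKO cells, read out with a cell viability assay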
Description: SANGER: Inhibition of human RKO cell growth in a cell viability assay.

IST-MES1 = tested on: IST-MES1;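 note: growth inhibition of IST-MES1 cells, measured with a cell viability assay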
Description: SANGER: Inhibition of human IST-MES1 cell growth in a cell viability assay.

BB65-RCC = tested on: BB65-RCC;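 note: growth inhibition of the cell line, measured with a cell viability assay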
Description: SANGER: Inhibition of human BB65-RCC cell growth in a cell viability assay.

NEC8 = tested on: NEC8;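 note: growth inhibition of human NEC8 cells, read out by a cell viability assay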
Description: SANGER: Inhibition of human NEC8 cell growth in a cell viability assay.

KMOE-2 = tested on: KMOE-2;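 note: growth inhibition of human KMOE-2 cells, read out with a cell viability assay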
Description: SANGER: Inhibition of human KMOE-2 cell growth in a cell viability assay.

COLO-800 = tested on: COLO-800;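 note: growth inhibition of COLO-800 cells, read out with a cell viability assay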
Description: SANGER: Inhibition of human COLO-800 cell growth in a cell viability assay.

BE-13 = tested on: BE-13;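 note: growth inhibition of human BE-13 cells, measured with a cell viability assay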
Description: SANGER: Inhibition of human BE-13 cell growth in a cell viability assay.

SK-LMS-1 = tested on: SK-LMS-1;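 note: growth inhibition of human SK-LMS-1 cells, read out with a cell viability assay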
Description: SANGER: Inhibition of human SK-LMS-1 cell growth in a cell viability assay.

LC-2-ad = tested on: LC-2-ad;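 note: growth inhibition of human LC-2-ad cells, read out with a cell viability assay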
Description: SANGER: Inhibition of human LC-2-ad cell growth in a cell viability assay.

HT = tested on: HT
Description: SANGER: Inhibition of human HT cell growth in a cell viability assay.

LB1047-RCC = tested on: LB1047-RCC;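 note: inhibition of cell growth, determined with a cell viability assay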
Description: SANGER: Inhibition of human LB1047-RCC cell growth in a cell viability assay.

EW-3 = tested on: EW-3;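 note: cell viability assay read-out, IC50 reflects inhibition of growth of the EW-3 cells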
Description: SANGER: Inhibition of human EW-3 cell growth in a cell viability assay.

CCRF-CEM = tested on: CCRF-CEM;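 note: inhibition of CCRF-CEM cell growth, measured by a cell viability assay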
Description: SANGER: Inhibition of human CCRF-CEM cell growth in a cell viability assay.

D283 Med = tested on: D283 Med
Description: SANGER: Inhibition of human D-283MED cell growth in a cell viability assay.

KM-H2 = tested on: KM-H2;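 note: growth inhibition of KM-H2 cells, read out by a cell viability assay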
Description: SANGER: Inhibition of human KM-H2 cell growth in a cell viability assay.

NCI-H1648 = tested on: NCI-H1648;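 note: cell viability assay measuring inhibition of NCI-H1648 cell growth, from the Sanger screening data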
Description: SANGER: Inhibition of human NCI-H1648 cell growth in a cell viability assay.

LS-513 = tested on: LS-513
Description: SANGER: Inhibition of human LS-513 cell growth in a cell viability assay.

OMC-1 = tested on: OMC-1;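 note: growth inhibition of the OMC-1 cell line, measured by a cell viability assay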
Description: SANGER: Inhibition of human OMC-1 cell growth in a cell viability assay.

JVM-3 = tested on: JVM-3;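 note: growth inhibition of human JVM-3 cells, read out with a cell viability assay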
Description: SANGER: Inhibition of human JVM-3 cell growth in a cell viability assay.

EC-GI-10 = tested on: EC-GI-10
Description: SANGER: Inhibition of human EC-GI-10 cell growth in a cell viability assay.

NCI-H1155 = tested on: NCI-H1155;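 note: cell growth inhibition measured by a viability assay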
Description: SANGER: Inhibition of human NCI-H1155 cell growth in a cell viability assay.

KS-1 = tested on: KS-1;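 note: growth inhibition of KS-1 cells, read out with a cell viability assay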
Description: SANGER: Inhibition of human KS-1 cell growth in a cell viability assay.

NCI-H747 = tested on: NCI-H747;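 note: growth inhibition of human NCI-H747 cells, read out by a cell viability assay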
Description: SANGER: Inhibition of human NCI-H747 cell growth in a cell viability assay.

NCI-H69 = tested on: NCI-H69;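 note: growth inhibition of the cell line, read out with a cell viability assay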
Description: SANGER: Inhibition of human NCI-H69 cell growth in a cell viability assay.

KNS-81-FD = tested on: KNS-81-FD;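 note: growth inhibition of KNS-81-FD cells, read out with a cell viability assay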
Description: SANGER: Inhibition of human KNS-81-FD cell growth in a cell viability assay.

EW-18 = tested on: EW-18;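 note: growth inhibition of EW-18 cells, read out by a cell viability assay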
Description: SANGER: Inhibition of human EW-18 cell growth in a cell viability assay.

KLE = tested on: KLE;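 note: growth inhibition of human KLE cells, read out with a cell viability assay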
Description: SANGER: Inhibition of human KLE cell growth in a cell viability assay.

ES8 = tested on: ES8;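 note: growth inhibition of human ES8 cells, read out with a cell viability assay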
Description: SANGER: Inhibition of human ES8 cell growth in a cell viability assay.

MMAC-SF = tested on: MMAC-SF;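 note: growth inhibition of human MMAC-SF cells, read out with a cell viability assay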
Description: SANGER: Inhibition of human MMAC-SF cell growth in a cell viability assay.

D-502MG = tested on: D-502MG
Description: SANGER: Inhibition of human D-502MG cell growth in a cell viability assay.

NCI-H1092 = tested on: NCI-H1092;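 note: cell growth inhibition measured with a cell viability assay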
Description: SANGER: Inhibition of human NCI-H1092 cell growth in a cell viability assay.

ACN = tested on: ACN;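 note: growth inhibition of the human ACN cell line, read out via cell viability testing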
Description: SANGER: Inhibition of human ACN cell growth in a cell viability assay.

NCI-H1770 = tested on: NCI-H1770;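 note: growth inhibition of NCI-H1770 cells determined with a viability readout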
Description: SANGER: Inhibition of human NCI-H1770 cell growth in a cell viability assay.

GT3TKB = tested on: GT3TKB;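 note: growth inhibition of the cell line, read out with a cell viability assay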
Description: SANGER: Inhibition of human GT3TKB cell growth in a cell viability assay.

CP66-MEL = tested on: CP66-MEL;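 note: growth inhibition of CP66-MEL cells determined in a cell viability assay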
Description: SANGER: Inhibition of human CP66-MEL cell growth in a cell viability assay.

KARPAS-299 = tested on: KARPAS-299
Description: SANGER: Inhibition of human KARPAS-299 cell growth in a cell viability assay.

HCC 2998 = tested on: HCC 2998;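 note: growth inhibition of human HCC2998 cells, measured with a cell viability read-out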
Description: SANGER: Inhibition of human HCC2998 cell growth in a cell viability assay.

## C=C(c1ccc(C(=O)O)cc1)c1cc2c(cc1C)C(C)(C)CCC2(C)C [BEXAROTENE]
HOP-62; Homo sapiens, HOP-62
  IC50: > 8 µM
RS4-11; Homo sapiens, RS4-11
  IC50: > 8 µM
IST-MEL1; Homo sapiens, IST-MEL1
  IC50: > 8 µM
DMS-79; Homo sapiens, DMS-79
  IC50: > 8 µM
LB373-MEL-D; Homo sapiens, LB373-MEL-D
  IC50: > 8 µM
NB10; Homo sapiens, NB10
  IC50: > 8 µM
MHH-NB-11; Homo sapiens, MHH-NB-11
  IC50: > 8 µM
SK-PN-DW; Homo sapiens, SK-PN-DW
  IC50: > 8 µM
HDLM-2; Homo sapiens, HDLM-2
  IC50: > 8 µM
ATN-1; Homo sapiens, ATN-1
  IC50: 3.34 µM
TK-10; Homo sapiens, TK-10
  IC50: > 8 µM
ES3; Homo sapiens, ES3
  IC50: > 8 µM
RKO; Homo sapiens, RKO
  IC50: > 8 µM
IST-MES1; Homo sapiens, IST-MES1
  IC50: > 8 µM
BB65-RCC; Homo sapiens, BB65-RCC
  IC50: > 8 µM
NEC8; Homo sapiens, NEC8
  IC50: > 8 µM
KMOE-2; Homo sapiens, KMOE-2
  IC50: > 8 µM
COLO-800; Homo sapiens, COLO-800
  IC50: > 8 µM
BE-13; Homo sapiens, BE-13
  IC50: > 8 µM
SK-LMS-1; Homo sapiens, SK-LMS-1
  IC50: 7.62 µM
LC-2-ad; Homo sapiens, LC-2-ad
  IC50: > 8 µM
HT; Homo sapiens, HT
  IC50: > 8 µM
LB1047-RCC; Homo sapiens, LB1047-RCC
  IC50: > 8 µM
EW-3; Homo sapiens, EW-3
  IC50: > 8 µM
CCRF-CEM; Homo sapiens, CCRF-CEM
  IC50: > 8 µM
D283 Med; Homo sapiens, D283 Med
  IC50: > 8 µM
KM-H2; Homo sapiens, KM-H2
  IC50: > 8 µM
NCI-H1648; Homo sapiens, NCI-H1648
  IC50: > 8 µM
LS-513; Homo sapiens, LS-513
  IC50: > 8 µM
OMC-1; Homo sapiens, OMC-1
  IC50: > 8 µM
JVM-3; Homo sapiens, JVM-3
  IC50: > 8 µM
EC-GI-10; Homo sapiens, EC-GI-10
  IC50: > 8 µM
NCI-H1155; Homo sapiens, NCI-H1155
  IC50: > 8 µM
KS-1; Homo sapiens, KS-1
  IC50: > 8 µM
NCI-H747; Homo sapiens, NCI-H747
  IC50: > 8 µM
NCI-H69; Homo sapiens, NCI-H69
  IC50: > 8 µM
KNS-81-FD; Homo sapiens, KNS-81-FD
  IC50: > 8 µM
EW-18; Homo sapiens, EW-18
  IC50: > 8 µM
KLE; Homo sapiens, KLE
  IC50: > 8 µM
ES8; Homo sapiens, ES8
  IC50: > 8 µM
MMAC-SF; Homo sapiens, MMAC-SF
  IC50: > 8 µM
D-502MG; Homo sapiens, D-502MG
  IC50: > 8 µM
NCI-H1092; Homo sapiens, NCI-H1092
  IC50: > 8 µM
ACN; Homo sapiens, ACN
  IC50: > 8 µM
NCI-H1770; Homo sapiens, NCI-H1770
  IC50: > 8 µM
GT3TKB; Homo sapiens, GT3TKB
  IC50: > 8 µM
CP66-MEL; Homo sapiens, CP66-MEL
  IC50: > 8 µM
KARPAS-299; Homo sapiens, KARPAS-299
  IC50: > 8 µM
HCC 2998; Homo sapiens, HCC 2998
  IC50: > 8 µM

## Nc1cccc2c1CN(C1CCC(=O)NC1=O)C2=O (configuration not stated) [LENALIDOMIDE]
HOP-62; Homo sapiens, HOP-62
  IC50: > 5 µM
RS4-11; Homo sapiens, RS4-11
  IC50: > 5 µM
IST-MEL1; Homo sapiens, IST-MEL1
  IC50: > 5 µM
DMS-79; Homo sapiens, DMS-79
  IC50: > 5 µM
LB373-MEL-D; Homo sapiens, LB373-MEL-D
  IC50: > 5 µM
NB10; Homo sapiens, NB10
  IC50: > 5 µM
MHH-NB-11; Homo sapiens, MHH-NB-11
  IC50: > 5 µM
SK-PN-DW; Homo sapiens, SK-PN-DW
  IC50: > 5 µM
HDLM-2; Homo sapiens, HDLM-2
  IC50: > 5 µM
ATN-1; Homo sapiens, ATN-1
  IC50: > 5 µM
TK-10; Homo sapiens, TK-10
  IC50: > 5 µM
ES3; Homo sapiens, ES3
  IC50: > 5 µM
RKO; Homo sapiens, RKO
  IC50: > 5 µM
IST-MES1; Homo sapiens, IST-MES1
  IC50: > 5 µM
BB65-RCC; Homo sapiens, BB65-RCC
  IC50: > 5 µM
NEC8; Homo sapiens, NEC8
  IC50: > 5 µM
KMOE-2; Homo sapiens, KMOE-2
  IC50: > 5 µM
COLO-800; Homo sapiens, COLO-800
  IC50: > 5 µM
BE-13; Homo sapiens, BE-13
  IC50: > 5 µM
SK-LMS-1; Homo sapiens, SK-LMS-1
  IC50: > 5 µM
LC-2-ad; Homo sapiens, LC-2-ad
  IC50: > 5 µM
HT; Homo sapiens, HT
  IC50: > 5 µM
LB1047-RCC; Homo sapiens, LB1047-RCC
  IC50: > 5 µM
EW-3; Homo sapiens, EW-3
  IC50: > 5 µM
CCRF-CEM; Homo sapiens, CCRF-CEM
  IC50: > 5 µM
D283 Med; Homo sapiens, D283 Med
  IC50: > 5 µM
KM-H2; Homo sapiens, KM-H2
  IC50: > 5 µM
NCI-H1648; Homo sapiens, NCI-H1648
  IC50: > 5 µM
LS-513; Homo sapiens, LS-513
  IC50: > 5 µM
OMC-1; Homo sapiens, OMC-1
  IC50: > 5 µM
JVM-3; Homo sapiens, JVM-3
  IC50: > 5 µM
EC-GI-10; Homo sapiens, EC-GI-10
  IC50: > 5 µM
NCI-H1155; Homo sapiens, NCI-H1155
  IC50: > 5 µM
KS-1; Homo sapiens, KS-1
  IC50: > 5 µM
NCI-H747; Homo sapiens, NCI-H747
  IC50: > 5 µM
NCI-H69; Homo sapiens, NCI-H69
  IC50: > 5 µM
KNS-81-FD; Homo sapiens, KNS-81-FD
  IC50: > 5 µM
EW-18; Homo sapiens, EW-18
  IC50: > 5 µM
KLE; Homo sapiens, KLE
  IC50: > 5 µM
ES8; Homo sapiens, ES8
  IC50: > 5 µM
MMAC-SF; Homo sapiens, MMAC-SF
  IC50: > 5 µM
D-502MG; Homo sapiens, D-502MG
  IC50: > 5 µM
NCI-H1092; Homo sapiens, NCI-H1092
  IC50: > 5 µM
ACN; Homo sapiens, ACN
  IC50: > 5 µM
NCI-H1770; Homo sapiens, NCI-H1770
  IC50: > 5 µM
GT3TKB; Homo sapiens, GT3TKB
  IC50: > 5 µM
CP66-MEL; Homo sapiens, CP66-MEL
  IC50: > 5 µM
KARPAS-299; Homo sapiens, KARPAS-299
  IC50: > 5 µM
HCC 2998; Homo sapiens, HCC 2998
  IC50: > 5 µM

## CISPLATIN
HOP-62; hop-62
  IC50: 659 µM
RS4-11; rs4-11
  IC50: 5.57 µM
IST-MEL1; ist-mel1
  IC50: 9.38 µM
DMS-79; dms-79
  IC50: 24.4 µM
LB373-MEL-D; lb373-mel-d
  IC50: 11 µM
NB10; nb10
  IC50: 11.5 µM
MHH-NB-11; mhh-nb-11
  IC50: 4.83 µM
SK-PN-DW; sk-pn-dw
  IC50: 35 µM
HDLM-2; hdlm-2
  IC50: 144 µM
ATN-1; atn-1
  IC50: 18.6 µM
TK-10; tk-10
  IC50: 31 µM
ES3; es3
  IC50: 0.863 µM
RKO; rko
  IC50: 66.8 µM
IST-MES1; ist-mes1
  IC50: 19.7 µM
BB65-RCC; bb65-rcc
  IC50: 2.82 µM
NEC8; nec8
  IC50: 2.52 µM
KMOE-2; kmoe-2
  IC50: 25.2 µM
COLO-800; colo-800
  IC50: 20.1 µM
BE-13; be-13
  IC50: 51.1 µM
SK-LMS-1; sk-lms-1
  IC50: 814 µM
LC-2-ad; lc-2-ad
  IC50: 12.2 µM
HT; ht
  IC50: 252 µM
LB1047-RCC; lb1047-rcc
  IC50: 5.89 µM
EW-3; ew-3
  IC50: 1.6 µM
CCRF-CEM; ccrf-cem
  IC50: 96 µM
D283 Med; d283 med
  IC50: 5.85 µM
KM-H2; km-h2
  IC50: 450 µM
NCI-H1648; nci-h1648
  IC50: 69.7 µM
LS-513; ls-513
  IC50: 61.6 µM
OMC-1; omc-1
  IC50: 12.6 µM
JVM-3; jvm-3
  IC50: 39.7 µM
EC-GI-10; ec-gi-10
  IC50: 13.2 µM
NCI-H1155; nci-h1155
  IC50: 22.7 µM
KS-1; ks-1
  IC50: 28.3 µM
NCI-H747; nci-h747
  IC50: 16.9 µM
NCI-H69; nci-h69
  IC50: 231 µM
KNS-81-FD; kns-81-fd
  IC50: 535 µM
EW-18; ew-18
  IC50: 35.2 µM
KLE; kle
  IC50: 137 µM
ES8; es8
  IC50: 3.43 µM
MMAC-SF; mmac-sf
  IC50: 531 µM
D-502MG; d-502mg
  IC50: 33.1 µM
NCI-H1092; nci-h1092
  IC50: 15.4 µM
ACN; acn
  IC50: 34.3 µM
NCI-H1770; nci-h1770
  IC50: 417 µM
GT3TKB; gt3tkb
  IC50: 3.92 µM
CP66-MEL; cp66-mel
  IC50: 32 µM
KARPAS-299; karpas-299
  IC50: 172 µM
HCC 2998; hcc 2998
  IC50: 271 µM
